Experimental data published in patent publication US8975400B2, “2,3-dihydroimidazo[1, 2-c] pyrimidin-5(1 H)-one compounds use as LP-PLA2 inhibitors” (Glaxo Group Limited, priority 2011, dated 2015).
Where a name gives a salt, the structure may show the parent alone.

Columns and labels:
[1] = biological target: T1, Lp-PLA2 in human plasma (Homo sapiens, UniProt Q13093); experiment: Lp-PLA2 human plasma assay (Thio-PAF assay); format: biochemical; details: pooled human plasma, 2-thio-PAF substrate; read-out: pIC50 in the thio-PAF assay (converted)
T1 construct: This assay may detect the activity of Lp-PLA2 in human plasma; from tissue; host or cells: pooled human plasma
T1 sequence (Q13093 22-441): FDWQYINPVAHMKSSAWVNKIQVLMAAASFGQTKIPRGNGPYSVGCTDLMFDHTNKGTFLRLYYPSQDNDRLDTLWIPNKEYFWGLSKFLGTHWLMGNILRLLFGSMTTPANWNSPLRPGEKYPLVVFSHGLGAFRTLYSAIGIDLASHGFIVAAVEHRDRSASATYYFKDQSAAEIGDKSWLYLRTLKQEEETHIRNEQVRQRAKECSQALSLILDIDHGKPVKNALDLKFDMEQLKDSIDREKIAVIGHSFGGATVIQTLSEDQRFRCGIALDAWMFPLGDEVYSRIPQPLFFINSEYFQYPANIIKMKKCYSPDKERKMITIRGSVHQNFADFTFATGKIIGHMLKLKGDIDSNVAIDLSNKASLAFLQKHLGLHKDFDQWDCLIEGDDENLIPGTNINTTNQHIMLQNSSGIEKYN
Description: (3) Lipoprotein-Associated Phospholipase A2 (Lp-PLA2) Human Plasma Assay (Also Referred to as “Thio-PAF Assay”)
The human plasma assay utilizes a thioester analog of PAF (phosphatidylcholine), where hydrolysis yields to the formation of a phospholipid containing a free thiol group. The amount of thiol is quantitated continuously by reacting with CPM (7-diethylamino-3-(4′-maleimidylphenyl)-4-methylcoumarin), a maleimide which increases in fluoresence after Michael addition of thiols. This assay may detect the activity of Lp-PLA2 in human plasma, as determined by specific inhibition by Lp-PLA2 inhibitors.
The thio-PAF assay was run as a quenched 15 μL assay. Compounds source plate was prepared by making 1:3 (by volume) serial dilution of the compounds into pure DMSO on 384-well microplate. 0.01 μL of compounds on compound source plate were transferred to 384 well Greiner 784076 (black) low-volume plates by ECHO liquid dispenser. 8 μL pooled human plasma, which was previously aliquoted and frozen, was added. Plates were centrifuged for 10 sec at 500 rpm. After 30 minutes preincubation, 2 μL of substrate solution comprising 2.5 mM 2-thio-PAF [from ethanol stock], 32 μM CPM [from a DMSO stock] and 3.2 mM NEM (N-ethylmaleimide) [made fresh daily in DMSO] in assay buffer of 50 mM HEPES, pH 7.4, 150 mM NaCl, 1 mM CHAPS was added to 384 well Greiner 784076 (black) low-volume plates by BRAVO liquid handling station. After 2 mins, reaction was quenched with 5 μL of 5% aqueous trifluoroacetic acid (TFA). Plates were covered to protect from light and incubated for 40 min at room temperature. Plates were read at ex: 380/em: 485 using-Envision microplate reader. pIC50 data, curve and QC analysis was conducted by using XLFit module in Excel.

[2] = biological target: T2, recombinant human Lp-PLA2 (Homo sapiens, UniProt Q13093); experiment: Recombinant human Lp-PLA2 assay (rhLp-PLA2, PED6 assay); format: biochemical; details: recombinant human Lp-PLA2, PED6 substrate; upper limit for pIC50 in this assay is 9.3
T2 sequence (Q13093 22-441): T1 sequence (Q13093 22-441)
Description: (1) Recombinant Human Lp-PLA2 Assay (rhLp-PLA2) (Also Referred to as “PED6” Assay)
N-((6-(2,4-dinitrophenyl)amino)-hexanoyl)-2-(4,4-difluoro-5,7-dimethyl-4-bora-3a,4a-diaza-s-indacene-3-pentanoyl)-1-hexadecanoyl-sn-glycero-3-phosphoethanolamine, triethylammonium salt (PED6) is a commercially available fluorescently-labeled phospholipid, which is commercially available from Invitrogene and Molecular Probes. There is a quenching […] and a Bodipy fluorescein (FL) group in the sn2 position. Upon cleavage with Lp-PLA2, the Bodipy FL group is liberated and then may result in an increase in fluorescence. Inhibitors of Lp-PLA2 therefore prevent this cleavage and no fluorescent increase is observed.
The PED6 assay was run as an unquenched 10 μL assay. The source plate containing the compounds to be tested was prepared by making 1:3 (by volume) serial dilution of the compounds within DMSO on 384-well microplate. Then, 0.01 μL of the compounds on compound source plate were transferred into 384 well Greiner 784076 (black) plates using ECHO liquid dispenser. 5 µL of recombinant human Lp-PLA2 enzyme (4 nM (or 110 pM) rhLp-PLA2 in assay buffer of 50 mM HEPES, pH 7.4, 150 mM NaCl, 1 mM CHAPS) was added to each well of the plate. Plates were centrifuged for 10 sec at 500 rpm. After 30 minutes preincubation, 5 µL of substrate (4 μM (or 5 μM) PED6 [from 5 mM DMSO stock] in assay buffer of 50 mM HEPES, pH 7.4, 150 mM NaCl, 1 mM CHAPS) was added to 384 well Greiner 784076 (black) plates. Plates were centrifuged for 10 sec at 500 rpm. The plate was covered to protect it from light and incubated for 20 min at room temperature. The plates were read for fluorescence intensity at ex: 480/em: 540 using ViewLux microplate imager for Envision spectrofluroimeters pIC50 data, curve and QC analysis was conducted by using XL fit module in Excel.
The compounds described below were tested generally according to the PED6 assay described above.

Row | IC50 [1] [µM] | IC50 [2] [µM] | Structure (SMILES)
1 | ≤ 1 | – | N#Cc1cccc(COc2cc3n(c(=O)n2)CCN3)c1 [Example E60, 3-(((5-oxo-1,2,3,5-tetrahydroimidazo[1,2-c]pyrimidin-7-yl)oxy)methyl)benzonitrile]
2 | ≤ 1 | – | Cc1ccc(Oc2ccc(COc3cc4n(c(=O)n3)CCN4C)cc2C#N)cn1 [Example E56, 5-(((1-methyl-5-oxo-1,2,3,5-tetrahydroimidazo[1,2-c]pyrimidin-7-yl)oxy)methyl)-2-((6-methylpyridin-3-yl)oxy)benzonitrile, trifluoroacetic acid salt]
3 | – | ≤ 0.01 | CN1CCn2c1cc(OCc1ccc(Oc3cccc(C#N)c3)c(F)c1)nc2=O [Example E63, 3-(2-fluoro-4-(((1-methyl-5-oxo-1,2,3,5-tetrahydroimidazo[1,2-c]pyrimidin-7-yl)oxy)methyl)phenoxy)benzonitrile, trifluoroacetic acid salt]
4 | ≤ 1 | – | CN1CCn2c1cc(OCc1cccc(C#N)c1)nc2=O [Example E33, 3-(((1-methyl-5-oxo-1,2,3,5-tetrahydroimidazo[1,2-c]pyrimidin-7-yl)oxy)meth-yl)benzonitrile]
5 | ≤ 1 | – | CN1CCn2c1cc(OCc1ccc(Oc3cnc(C(F)(F)F)nc3)c(C#N)c1)nc2=O [Example E31, 5-(((l-methyl-5-oxo-1,2,3,5-tetrahydroimidazo[1,2-c]pyrimidin-7-yl)oxy)methyl)-2-((2-(trifluoromethyl)pyrimidin-5-yl)oxy)benzonitrile]
6 | – | ≤ 0.01 | O=c1nc(OCc2ccc(Oc3cccc(C(F)(F)F)c3)c(Cl)c2)cc2n1CCN2 [Example E61, 7-((3-chloro-4-(3-(trifluoromethyl)phenoxy)benzyl)oxy)-2,3-dihydroimidazo[1,2-c]pyrimidin-5(1H)-one]
7 | ≤ 1 | – | CC(C)N1CCn2c1cc(OCc1ccc(F)c(F)c1)nc2=O [Example E47, 7-((3,4-difluorobenzyl)oxy)-1-isopropyl-2,3-dihydroimidazo[1,2-c]pyrimidin-5(1H)-one, trifluoroacetic acid salt]
8 | – | ≤ 0.01 | CN1CCn2c1cc(OCc1ccc(F)c(Oc3cccc(Cl)c3)c1)nc2=O [Example E16, 7-((3-(3-chlorophenoxy)-4-fluorobenzyl)oxy)-1-methyl-2,3-dihydroimidazo[1,2-c]pyrimidin-5(1H)-one]
9 | – | ≤ 0.01 | CN1CCn2c1cc(OCc1cc(F)c(Oc3ccc(F)cc3)c(F)c1)nc2=O [Example E12, 7-((3,5-difluoro-4-(4-fluorophenoxy)benzyl)oxy)-1-methyl-2,3-dihydroimidazo[1,2-c]pyrimidin-5(1H)-one]
10 | ≤ 1 | – | CN1CCn2c1cc(OCc1ccc(Oc3ccc(F)c(Cl)c3)c(C#N)c1)nc2=O [Example E39, 2-(3-chloro-4-fluorophenoxy)-5-(((1-methyl-5-oxo-1,2,3,5-tetrahydroimidazo[1,2-c]pyrimidin-7-yl)oxy)methyl)benzonitrile, trifluoroacetic acid salt]
11 | – | ≤ 0.01 | CN1CCn2c1cc(OCc1ccc(Oc3ccc(F)cc3)c(C#N)c1)nc2=O [Example E22, 2-(4-fluorophenoxy)-5-(((1-methyl-5-oxo-1,2,3,5-tetrahydroimidazo[1,2-c]pyrimidin-7-yl)oxy)methyl)benzonitrile]
12 | – | ≤ 0.01 | CN1CCn2c1cc(OCc1ccc(Oc3cc(F)cc(F)c3)c(F)c1)nc2=O [Example E43, 7-((4-(3,5-difluorophenoxy)-3-fluorobenzyl)oxy)-1-methyl-2,3-dihydroimidazo[1,2-c]pyrimidin-5(1H)-one, trifluoroacetic acid salt]
13 | ≤ 1 | – | CN1CCn2c1cc(OCc1cc(F)c(F)c(F)c1)nc2=O [Example E17, 1-methyl-7-((3,4,5-trifluorobenzyl)oxy)-2,3-dihydroimidazo[1,2-c]pyrimidin-5(1H)-one]
14 | ≤ 1 | – | CN1CCn2c1cc(OCc1ccc(F)c(F)c1)nc2=O [Example E7, 7-((3,4-difluorobenzyl)oxy)-1-methyl-2,3-dihydroimidazo[1,2-c]pyrimidin-5(1H)-one]
15 | ≤ 1 | – | O=c1nc(OCc2ccc(F)c(F)c2)cc2n1CCN2 [Example E68, 7-((3,4-difluorobenzyl)oxy)-2,3-dihydroimidazo[1,2-c]pyrimidin-5(1H)-one]

Continued, compound first:

Row | Structure (SMILES) | IC50 [1] [µM] | IC50 [2] [µM]
16 | O=c1nc(OCc2ccc(Oc3ccc(Cl)c(Cl)c3)c(F)c2)cc2n1CCN2 [Example 98, 7-((4-(3,4-dichlorophenoxy)-3-fluorobenzyl)oxy)-2,3-dihydroimidazo[1,2-c]pyrimi-din-5(1H)-one] | – | ≤ 0.01
17 | O=c1nc(OCc2ccc(Oc3cc(F)cc(C(F)(F)F)c3)c(F)c2)cc2n1CCN2 [Example 151, 7-((3-fluoro-4-(3-fluoro-5-(trifluoromethyl)phenoxy)benzyl)oxy)-2,3-dihydroim-idazo[1,2-c]pyrimidin-5(1H)-one] | – | ≤ 0.001
18 | CN1CCn2c1cc(OCc1ccc(Oc3cncc(F)c3)c(C#N)c1)nc2=O [Example 137, 2-((5-fluoropyridin-3-yl)oxy)-5-(((1-methyl-5-oxo-1,2,3,5-tetrahydroimidazo[1,2-c]pyrimidin-7-yl)oxy)methyl)benzonitrile] | ≤ 1 | –
19 | CN1CCn2c1cc(OCc1ccc(Oc3cncc(C#N)c3)c(C#N)c1)nc2=O [Example 138, 5-(2-cyano-4-(((l-methyl-5-oxo-1,2,3,5-tetrahydroimidazo[1,2-c]pyrimidin-7-yl)oxy)methyl)phenoxy)nicotinonitrile] | ≤ 1 | –
20 | CN1CCn2c1cc(OCc1ccc(F)c(C#N)c1)nc2=O [Example 146, 2-fluoro-5-(((l-methyl-5-oxo-1,2,3,5-tetrahydroimidazo[1,2-c]pyrimidin-7-yl)oxy)methyl)benzonitrile] | ≤ 1 | –
21 | CN1CCn2c1cc(OCc1ccc(Oc3cncc(C#N)c3)c(F)c1)nc2=O [Example 141, 5-(2-fluoro-4-(((1-methyl-5-oxo-1,2,3,5-tetrahydroimidazo[1,2-c]pyrimidin-7-yl)oxy)methyl)phenoxy)nicotinonitrile] | ≤ 1 | –
22 | N#Cc1cc(COc2cc3n(c(=O)n2)CCN3)ccc1Oc1cnc(F)c(F)c1 [Example 117, 2-((5,6-difluoropyridin-3-yl)oxy)-5-(((5-oxo-1,2,3,5-tetrahydroimidazo[1,2-c]pyrimidin-7-yl)oxy)methyl)benzonitrile] | – | ≤ 0.01
23 | N#Cc1cc(COc2cc3n(c(=O)n2)CCN3)ccc1Oc1cccc(C(F)(F)F)c1 [Example 112, 5-(((5-oxo-1,2,3,5-tetrahydroimidazo[1,2-c]pyrimidin-7-yl)oxy)methyl)-2-(3-(trifluoromethyl)phenoxy)benzonitrile] | – | ≤ 0.01
24 | CN1CCn2c1cc(OCc1ccc(Oc3ccc(C#N)nc3)c(C#N)c1)nc2=O [Example 108, 5-(2-cyano-4-(((1-methyl-5-oxo-1,2,3,5-tetrahydroimidazo[1,2-c]pyrimidin-7-yl)oxy)methyl)phenoxy)picolinonitrile] | ≤ 1 | –
